Results taken from US7514450B2, “Azabicyclic aryl derivatives” (NeuroSearch A/S, priority 2004, dated 2009).
Where a name gives a salt, the structure may show the parent alone.

Target: T1, α7-subtype of nicotinic receptors (Rattus norvegicus, UniProt Q05941)
T1 construct: Cerebral cortices from male Wistar rats (150-250 g) are homogenised; from tissue; host or cells: rat cerebral cortex membrane homogenate
Assay: In vitro inhibition of 3H-α-bungarotoxine binding in rat brain
Settings: rat cerebral cortex homogenate; 3H-α-bungarotoxine 2 nM; 2 hours at 37° C

T1 sequence (Q05941 23-502): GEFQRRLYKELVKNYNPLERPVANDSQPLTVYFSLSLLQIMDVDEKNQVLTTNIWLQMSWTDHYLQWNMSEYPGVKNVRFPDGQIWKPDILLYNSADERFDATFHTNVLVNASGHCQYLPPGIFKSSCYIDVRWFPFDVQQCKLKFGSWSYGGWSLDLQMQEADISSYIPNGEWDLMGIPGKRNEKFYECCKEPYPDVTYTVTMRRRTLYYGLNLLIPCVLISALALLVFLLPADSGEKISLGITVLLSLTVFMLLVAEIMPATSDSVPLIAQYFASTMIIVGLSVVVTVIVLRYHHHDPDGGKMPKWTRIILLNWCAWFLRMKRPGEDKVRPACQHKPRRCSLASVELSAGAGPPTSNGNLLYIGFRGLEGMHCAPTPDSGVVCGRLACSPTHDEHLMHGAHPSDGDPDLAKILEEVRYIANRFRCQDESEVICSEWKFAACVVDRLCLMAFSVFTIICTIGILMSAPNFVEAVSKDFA

## O=C(Nc1ccc(-c2ccc(C(=O)NC3CN4CCC3CC4)o2)cc1)c1ccccc1 (racemic) [Compound 1, (±)5-(4-Benzoylamino-phenyl)-furan-2-carboxylic acid(1-aza-bicyclo[2.2.2]oct-3-yl)-amide hydrochloric acid salt]
  IC50: 80 nM
